In ChEMBL document CHEMBL1201862, “PubChem BioAssay data set” (2004):
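Interpolation was linear, between the two tested concentrations surrounding the appropriate level; five concentrations were tested over 48 hours in 96-well plates. GI50: concentration for 50% inhibition of growth.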 Active and inactive are the calls of the source. Rule as the data show it: active = GI50 up to about 1.1 µM and inactive = higher.

What was measured:
Assay in all cases: DTP human tumour cell line panel, 48 h
NCI-H23 = tested on: NCI-H23
RPMI-8226 = tested on: RPMI-8226
BT-549 = tested on: BT-549
SF-295 = tested on: SF-295
RXF 393 = tested on: RXF 393
NCI/ADR-RES = tested on: NCI/ADR-RES
KM12 = tested on: KM12
M14 = tested on: M14
MDA-N = tested on: MDA-N
SK-MEL-2 = tested on: SK-MEL-2
SK-OV-3 = tested on: SK-OV-3
SF-539 = tested on: SF-539
MDA-MB-435 = tested on: MDA-MB-435
Malme-3M = tested on: Malme-3M
OVCAR-4 = tested on: OVCAR-4
UO-31 = tested on: UO-31
A498 = tested on: A498
MCF7 = tested on: MCF7
EKVX = tested on: EKVX
PC-3 = tested on: PC-3

SMILES | GI50 (NCI-H23) | GI50 (RPMI-8226) | GI50 (BT-549) | GI50 (SF-295) | GI50 (RXF 393) | GI50 (NCI/ADR-RES) | GI50 (KM12) | GI50 (M14) | GI50 (MDA-N) | GI50 (SK-MEL-2) | GI50 (SK-OV-3) | GI50 (SF-539) | GI50 (MDA-MB-435) | GI50 (Malme-3M) | GI50 (OVCAR-4) | GI50 (UO-31) | GI50 (A498) | GI50 (MCF7) | GI50 (EKVX) | GI50 (PC-3)
O=C(O)C1CC=CCC1C(=O)Nc1cccc(O)c1 (stereo not given) | > 100 µM (inactive) | > 100 µM (inactive) | > 100 µM (inactive) | > 100 µM (inactive) | > 100 µM (inactive) | > 100 µM (inactive) | > 100 µM (inactive) | > 100 µM (inactive) | > 100 µM (inactive) | > 100 µM (inactive) | > 100 µM (inactive) | > 100 µM (inactive) | > 100 µM (inactive) | > 100 µM (inactive) | > 100 µM (inactive) | > 100 µM (inactive) | > 100 µM (inactive) | > 100 µM (inactive) | > 100 µM (inactive) | > 100 µM (inactive)
O=C1CSC(/C(=C\c2ccc(Cl)cc2)c2nc3ccccc3[nH]2)=N1 | 14.8 µM (inactive) | 33.8 µM (inactive) | 19.2 µM (inactive) | 9.2 µM (inactive) | 0.738 µM (active) | 19.1 µM (inactive) | 13.2 µM (inactive) | 22.6 µM (inactive) | 18.2 µM (inactive) | 17.9 µM (inactive) | 11.5 µM (inactive) | 0.659 µM (active) | 17.9 µM (inactive) | 16.7 µM (inactive) | 16.1 µM (inactive) | 3.03 µM (inactive) | 4.19 µM (inactive) | 14.6 µM (inactive) | 17 µM (inactive) | 19.5 µM (inactive)
O=C1Nc2ccc(S(=O)(=O)O)cc2/C1=C1/Nc2ccc(Br)cc2C1=O | > 100 µM (inactive) | > 100 µM (inactive) | > 100 µM (inactive) | > 100 µM (inactive) | > 100 µM (inactive) | > 100 µM (inactive) | > 100 µM (inactive) | > 100 µM (inactive) | > 100 µM (inactive) | > 100 µM (inactive) | > 100 µM (inactive) |  | > 100 µM (inactive) | > 100 µM (inactive) | > 100 µM (inactive) | > 100 µM (inactive) | > 100 µM (inactive) | 72.8 µM (inactive) | > 100 µM (inactive) | > 100 µM (inactive)
C(=N\Nc1nnc2c(n1)[nH]c1ccccc12)/c1cccnc1 | > 100 µM (inactive) | > 100 µM (inactive) | > 100 µM (inactive) | > 100 µM (inactive) | > 100 µM (inactive) | > 100 µM (inactive) | 3.69 µM (inactive) | 5.07 µM (inactive) | > 100 µM (inactive) | > 100 µM (inactive) | > 100 µM (inactive) | > 100 µM (inactive) | > 100 µM (inactive) | 57.8 µM (inactive) | > 100 µM (inactive) | > 100 µM (inactive) | > 100 µM (inactive) | > 100 µM (inactive) | > 100 µM (inactive) | > 100 µM (inactive)
CC1=NN(c2ccc(S(=O)(=O)O)cc2)C2(C1)SCC(=O)N2c1nc2ccccc2s1 (stereo not given) | > 100 µM (inactive) | > 100 µM (inactive) | > 100 µM (inactive) | > 100 µM (inactive) | > 100 µM (inactive) | > 100 µM (inactive) | > 100 µM (inactive) | > 100 µM (inactive) | > 100 µM (inactive) | > 100 µM (inactive) | > 100 µM (inactive) | > 100 µM (inactive) | > 100 µM (inactive) | > 100 µM (inactive) | > 100 µM (inactive) | > 100 µM (inactive) | > 100 µM (inactive) | > 100 µM (inactive) | > 100 µM (inactive) | > 100 µM (inactive)
CCCCCCCCCCCCCCCCCCNc1ccn(C2OC(COP(=O)(O)OCC(COP(=O)(O)OCC3OC(n4cc(C)c(=O)[nH]c4=O)CC3N=[N+]=[N-])OCCCCCCCCCCCCCCCCCC)C(O)C2O)c(=O)n1 (stereo not given) | 77.4 µM (inactive) | 7.46 µM (inactive) | 90.4 µM (inactive) | > 100 µM (inactive) | 51.6 µM (inactive) | > 100 µM (inactive) | 38.5 µM (inactive) | > 100 µM (inactive) | > 100 µM (inactive) | > 100 µM (inactive) | > 100 µM (inactive) | 27 µM (inactive) | 87.1 µM (inactive) | 27 µM (inactive) | 70.5 µM (inactive) | 17.7 µM (inactive) | > 100 µM (inactive) | 34.4 µM (inactive) | > 100 µM (inactive) | 29.4 µM (inactive)
Cc1cc2ccc(OC(=O)c3ccc(NC(=N)N)cc3)cc2oc1=O | 21.3 µM (inactive) | 22.2 µM (inactive) | 26.3 µM (inactive) | 46.5 µM (inactive) | 33.3 µM (inactive) | > 100 µM (inactive) | 21.7 µM (inactive) | 28.8 µM (inactive) | 29.2 µM (inactive) | 25.4 µM (inactive) | 19.1 µM (inactive) | 24.5 µM (inactive) | 20 µM (inactive) | 22 µM (inactive) | 16.6 µM (inactive) | 52.4 µM (inactive) | 21.2 µM (inactive) | 22.1 µM (inactive) | 30.5 µM (inactive) | 28.6 µM (inactive)
CCOC(=O)C(Cc1ccc(OC(=O)c2ccc(OC)cc2OC)cc1)NC(=O)C(F)(F)F (stereo not given) | 22.1 µM (inactive) | 20.3 µM (inactive) | 79.1 µM (inactive) | 31.7 µM (inactive) | 19.6 µM (inactive) | 32 µM (inactive) | 29.4 µM (inactive) | 17.5 µM (inactive) | 20 µM (inactive) | 24.6 µM (inactive) | 39 µM (inactive) | 23.2 µM (inactive) | 18.7 µM (inactive) | 21.3 µM (inactive) | 23.5 µM (inactive) | 18 µM (inactive) | 15.7 µM (inactive) | 19.7 µM (inactive) | 21.4 µM (inactive) | 21.8 µM (inactive)
CC(C)c1ccc(C(O)(C(=O)O)c2ccc(C(C)C)cc2)cc1 | 42.1 µM (inactive) | 24.8 µM (inactive) | 91.6 µM (inactive) | 26.7 µM (inactive) | 61.9 µM (inactive) | 73.5 µM (inactive) | 39.6 µM (inactive) | 63.5 µM (inactive) | 70 µM (inactive) |  | 69.7 µM (inactive) | > 100 µM (inactive) | 95.7 µM (inactive) | 78.7 µM (inactive) | 42.6 µM (inactive) | 35.3 µM (inactive) | 57.9 µM (inactive) | 53.7 µM (inactive) | 51.8 µM (inactive) | 31.6 µM (inactive)
COC(=O)[C@H](Cc1ccccc1)NC(=O)c1ccc(CNC(=O)/C=C/c2cccc(Oc3ccccc3)c2)cc1 | 36.7 µM (inactive) | 28.3 µM (inactive) | > 100 µM (inactive) | 44.1 µM (inactive) | 7.31 µM (inactive) | 31.3 µM (inactive) | 40.8 µM (inactive) | 11.9 µM (inactive) | 4.16 µM (inactive) | 10.3 µM (inactive) | 53.5 µM (inactive) |  | 5.35 µM (inactive) | 15.1 µM (inactive) | 34.4 µM (inactive) | 26.7 µM (inactive) | 23.1 µM (inactive) | 12.8 µM (inactive) | 30.8 µM (inactive) | 29.4 µM (inactive)
CCOc1cc2c(cc1O)/C(=N\OC)C[C@@H]1[C@@H]2CC[C@]2(C)[C@@H](O)CC[C@@H]12 | 0.324 µM (active) | 0.167 µM (active) | 1.71 µM (inactive) |  | < 0.01 µM (active) | 0.0319 µM (active) | 0.423 µM (active) | 0.15 µM (active) | < 0.0163 µM (active) | < 0.0358 µM (active) | 0.243 µM (active) |  | 0.0282 µM (active) | 0.129 µM (active) | 10.7 µM (inactive) | 0.875 µM (active) | 0.0908 µM (active) | 0.0238 µM (active) | 10.8 µM (inactive) | 1.39 µM (inactive)
CC(NC(=O)C(N)Cc1ccc(O)cn1)C(=O)O (stereo not given) | > 100 µM (inactive) | > 100 µM (inactive) | > 100 µM (inactive) | > 100 µM (inactive) | > 100 µM (inactive) | > 100 µM (inactive) | > 100 µM (inactive) |  | > 100 µM (inactive) |  |  | > 100 µM (inactive) | > 100 µM (inactive) | > 100 µM (inactive) | > 100 µM (inactive) | > 100 µM (inactive) | > 100 µM (inactive) | > 100 µM (inactive) | > 100 µM (inactive) | > 100 µM (inactive)
COC(=O)C1C(O)C(C(=O)OC)C(C)N(C)C1C (stereo not given) | > 100 µM (inactive) | > 100 µM (inactive) | > 100 µM (inactive) | > 100 µM (inactive) | > 100 µM (inactive) | > 100 µM (inactive) | > 100 µM (inactive) | > 100 µM (inactive) | > 100 µM (inactive) | > 100 µM (inactive) | > 100 µM (inactive) | > 100 µM (inactive) | > 100 µM (inactive) |  | > 100 µM (inactive) | > 100 µM (inactive) | > 100 µM (inactive) | > 100 µM (inactive) | > 100 µM (inactive) | > 100 µM (inactive)
O=C(Cn1c(C(=O)/C=C/c2ccc(Cl)cc2)nc2ccccc21)c1ccc(Cl)cc1 | 19.5 µM (inactive) | 6.18 µM (inactive) | 24.5 µM (inactive) |  | 15.5 µM (inactive) | 20.5 µM (inactive) | 7.26 µM (inactive) | 18.1 µM (inactive) | 20.7 µM (inactive) | 17.6 µM (inactive) | 26.9 µM (inactive) | 18.3 µM (inactive) | 17.1 µM (inactive) | 20.9 µM (inactive) | 13.4 µM (inactive) | 19.8 µM (inactive) | 32.3 µM (inactive) | 15.2 µM (inactive) | 26.5 µM (inactive) | 22.5 µM (inactive)
